The subject of assay [1] is MDA-MB-231 cells. The assay is described as follows: Cell proliferation (MTS) analysis, MDA-MB-231. In kind it is cell-based, human. To be noted: MDA-MB-231, 48 hours after PAA treatment. How it is done:
(FIGS. 1A, B and C) show chemical structures of PAA and viability of MCF-7 and MDA-MB-231 cells depending on PAA. MCF-7 and MDA-MB-231 cells were treated with increasing concentrations of PAA for 48 hours. Anti-proliferation effects of PAA were measured by MTS analysis.
Proliferation rates of MCF-7 and MDA-MB-231 cells were measured using a CellTiter 96® aqueous one solution cell proliferation kit. MCF-7 and MDA-MB-231 cells were cultured in the presence of PAA (0.1, 0.2, 0.5, 1 and 2 mM) on a 96-well plate for 48 hours. In accordance with the manufacturer's protocol, absorbance at 490 nm was determined using a 96-well plate reader (Dynex Revelation, Dynex Ltd., Billingshurst, UK). All data was determined by measurement of three sets.
In order to investigate anti-proliferation effects of PAA in human breast cancer cell lines, i.e., MCF-7 and MDA-MB-231, the cancer cell lines were treated with different concentrations of PAA and then MTS analysis was conducted.

Assay [2] has as its system mammospheres. The assay is described as follows: Growth of mammospheres (cell counting). It counts as cell-based. Here is the method: PAA inhibits growth of mammospheres. Mammospheres treated with PAA and DMSO for 2 days were separated into single cells and the equal number of cells were seeded on a 6 cm dish. 24 hours after seeding, the cells were counted. At 2- and 3-days, the cells were counted three times and plotted by the mean of the number. The data was represented by mean±standard deviation (SD). * means P<0.05, as compared to DMSO-treated control group;
Accordingly, for PAA, the levels of ROSs in breast cancer stem cells were investigated. As a result, PAA induced ROS activity in MDA-MB-231 cells (FIG. 7B). Next, in order to identify whether or not PAA inhibits proliferation of mammospheres, the mammospheres were treated with PAA and the cell number of mammospheres was counted.

Assay [3] has as its system ROSs in MDA-MB-231 cells. The assay is described as follows: Measurement of ROS activity (ROS-Glo H2O2 assay). It counts as cell-based, human. How it is done: ROSs in cells were analyzed using a ROS-Glo™ H2O2 assay kit. PAA induced ROS production of breast cancers;
Cancer cells were cultured on a 96-well white plate and cultured together with PAA (0.5 mM) or DMSO for 24 hours. In accordance with the manufacturer's instructions, ROS was measured using an ROS-Glo™ H2O2 detection solution (Promega, Wis., USA). 100 μl of the ROS-Glo™ H2O2 detection solution was added to a 96-well white plate containing breast cancer cells, cultured at room temperature for 20 minutes, and relative luminance was recorded using a plate reader, luminometer, GloMax® Explorer (Promega, Wis., USA).

For assay [4], the system named is CD44high/CD24low cell populations of MDA-MB-231 cells. The assay is described as follows: Flow cytometric analysis of CD44 and CD24 expression. It counts as cell-based, human. Conditions: MDA-MB-231, PAA 0.1 mM. How it is done: For FACS analysis, 50,000 cells were obtained. Gating was based on control antibody;
Expression of CD44 and CD24 in MDA-MB-231 cells was measured by FACS analysis. The cells were isolated and harvested using 1× trypsin/EDTA, and a million of cells were suspended, labelled with FITC-conjugated anti-human CD44 and PE-conjugated anti-human CD24 antibodies (BD Pharmingen, San Diego, Calif., USA) and cultured at 4° C. for 30 minutes. Then, the cells were washed with 1×PBS three times and analyzed by flow cytometry (Accuri C6, BD, San Diego, Calif., USA).
(In general: In flow cytometry, cells or beads pass a laser one at a time.)

Assay [5] deals with MDA-MB-231 cells. The assay is described as follows: Annexin V/PI staining analysis (FACS). In kind it is cell-based, human. To be noted: MDA-MB-231, PAA 0.2 mM, 24 hours. How it is done: (§1) (FIGS. 1D, E and F) show effects of PAA on apoptosis of breast cancer cells. MDA-MB-231 cells were treated with PAA for 24 hours, and apoptotic cells were analyzed by FACS using an Annexin V-PI staining kit. Caspase 3/7 activity in MDA-MB-231 cells was analyzed using a Caspase-Gloss 3/7 kit. By fluorescent staining, apoptotic cells were analyzed and nuclei thereof were stained with Hoechst 33258 in breast cancers (magnified, 200×) (FIG. 1);
[…] In accordance with the manufacturer's instructions, the cancer cells were double-stained with PI and FITC-Annexin V. The sample was analyzed by flow cytometry (Accuri C6, BD, San Diego, Calif., USA).

Assay [6] concerns Caspase 3/7 activity in MDA-MB-231 cells. The assay is described as follows: Caspase-3/7 analysis (Caspase-Glo 3/7 kit). To be noted: MDA-MB-231, 24 hours. It counts as cell-based, human. Here is the method:
as §1
Cancer cells were treated with different concentrations of PAA for 24 hours. Caspase-3/7 activity was analyzed in accordance with the manufacturer's instructions regarding a Caspase-Glo 3/7 kit (Promega, Wis., USA). 100 μl of a Caspase-Glo 3/7 reagent was added to a 96-well for culturing cancer cells. The plate was covered with a plate sealer and cultured at room temperature for one hour, and Caspase-3/7 activity was measured using a plate-reading luminometer, GloMax® Explorer (Promega, Wis., USA).

Assay [7] deals with MDA-MB-231 cells. The assay is described as follows: Clonogenicity assay (colony formation). It counts as cell-based, human. Conditions: MDA-MB-231, 7 days. Here is the method: The dissociated 1,000 MDA-MB-231 cells were seeded on a 6-well plate and treated with marked concentrations of PAA and DMSO for 7 days. A representative image of colonies was recorded. Shown data is represented as a mean±SD in three independent tests. * means P<0.05, as compared to DMSO-treated control group;
MDA-MB-231 cells were seeded at a low density on a 6-well plate and treated with different concentrations of PAA in DMEM. After 24 hours, the medium was replaced with fresh medium and incubated for cell growth for 7 days. Grown colonies were counted.

Assay [8] concerns secreted IL-6. The assay is described as follows: Western blot of secreted IL-6 in mammosphere culture solution. In kind it is cell-based, human. Conditions: culture solution of mammospheres. The text has this:
PAA reduces extracellular IL-6 protein levels in mammosphere culture;
The secreted IL-6 is known to play a key role in the formation of mammospheres (Sansone P, Storci G, Tavolari S, Guarnieri T, Giovannini C, Taffurelli M, Ceccarelli C, Santini D, Paterini P, Marcu K B, Chieco P and Bonafe M. IL-6 triggers malignant features in mammospheres from human ductal breast carcinoma and normal mammary gland. J Clin Invest. 2007; 117(12):3988-4002). Accordingly, in order to investigate the amount of produced secreted IL-6, western blot analysis was conducted in a culture solution of mammospheres using IL-6 antibodies. […] The internal control group was used to count mammospheres before and after treatment with PAA.

`O=CCc1ccccc1` [PAA, phenylacetaldehyde]: the “PAA concentration at which growth of the cell line was concentration-dependently inhibited” value in assay [1] was at least 100 μm. The apoptosis of mammospheres entry in assay [2] is “induced apoptosis”. Moreover, in assay [2] (cell number counted after PAA treatment), the proliferation of mammospheres entry is “greatly reduces”. Further, the ROS activity result in assay [3] is “induced”. Besides, the “subpopulation expressing CD44high/CD24low in breast cancer cells” value in assay [4] is “reduced”. In addition, in assay [5], the “number of breast cancer cells (Annexin V+) killed” value is given as “increased”. Also, the “activity of caspase 3/7” value in assay [6] is “concentration-dependently induced”. In addition, the formation of colonies entry in assay [7] was “concentration-dependently inhibited”. In addition, the “production level of secreted IL-6” value in assay [8] is on record as “reduced”.

The values above are taken from patent US11324706B2, “Composition for inhibiting growth of breast cancer stem cells containing phenylacetaldehyde” (JEJU NATIONAL UNIVERSITY INDUSTRY-ACADEMIC COOPERATION …, priority 2016, dated 2022).
